According to US12503461B2, “Pesticidally active heterocyclic derivatives with sulfur and sulfoximine containing substituents” (SYNGENTA CROP PROTECTION AG, priority 2019, dated 2025):

What was measured:
Format in all cases: in vivo
[1] = system: Bemisia tabaci (Cotton White Fly); assay: Example B6: Bemisia tabaci (cotton white fly), feeding/contact activity, sprayed cotton leaf discs; conditions: foliar, 144 h, application rate of 200 ppm, adult white flies, 6 days after incubation
Experimental: Example B6: Bemisia tabaci (Cotton White Fly). Feeding/Contact Activity
Cotton leaf discs were placed on agar in 24-well microtiter plates and sprayed with aqueous test solutions prepared from 10′000 ppm DMSO stock solutions. After drying the leaf discs were infested with adult white flies. The samples were checked for mortality 6 days after incubation.

[2] = system: Diabrotica balteata (Corn Root Worm); assay: Example B1: Diabrotica balteata (corn root worm), sprayed maize sprouts on agar, L2 larvae; conditions: 96 h, application rate of 200 ppm, 4 days after infestation, in comparison to untreated samples, read-out: effect in at least one of the two categories (mortality or growth inhibition)
Experimental: Example B1: Diabrotica balteata (Corn Root Worm
Maize sprouts placed onto an agar layer in 24-well microtiter plates were treated with aqueous test solutions prepared from 10′000 ppm DMSO stock solutions by spraying. After drying, the plates were infested with L2 larvae (6 to 10 per well). The samples were assessed for mortality and growth inhibition in comparison to untreated samples 4 days after infestation.

[3] = system: Spodoptera littoralis (Egyptian Cotton Leaf Worm); assay: Example B7: Spodoptera littoralis (Egyptian cotton leaf worm), sprayed cotton leaf discs, L1 larvae; conditions: foliar, 72 h, application rate of 200 ppm, 3 days after infestation, in comparison to untreated samples
Summary of the method: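 Cotton leaf discs on agar were sprayed with aqueous test solutions made from 10′000 ppm DMSO stocks, dried, and infested with five L1 larvae. Mortality, anti-feeding and growth inhibition were scored against untreated samples 3 days after infestation; control means any category exceeds the untreated sample.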

[4] = system: Euschistus heros (Neotropical Brown Stink Bug); assay: Example B2: Euschistus heros (neotropical brown stink bug), sprayed soybean leaves, N2 nymphs; conditions: 120 h, application rate of 200 ppm, 5 days after infestation, in comparison to untreated samples, read-out: effect in at least one of the two categories (mortality or growth inhibition)
Experimental: Example B2: Euschistus heros (Neotropical Brown Stink Bug
Soybean leaves on agar in 24-well microtiter plates were sprayed with aqueous test solutions prepared from 10′000 ppm DMSO stock solutions. After drying the leaves were infested with N2 nymphs. The samples were assessed for mortality and growth inhibition in comparison to untreated samples 5 days after infestation.

[5] = system: Plutella xylostella (Diamond Back Moth); assay: Example B4: Plutella xylostella (diamond back moth), treated artificial diet, eggs; conditions: 192 h, application rate of 200 ppm, 8 days after infestation, in comparison to untreated samples, read-out: effect in at least one of the two categories (mortality or growth inhibition)
Experimental: Example B4: Plutella xylostella (Diamond Back Moth
24-well microtiter plates with artificial diet were treated with aqueous test solutions prepared from 10′000 ppm DMSO stock solutions by pipetting. After drying, Plutella eggs were pipetted through a plastic stencil onto a gel blotting paper and the plate was closed with it. The samples were assessed for mortality and growth inhibition in comparison to untreated samples 8 days after infestation.

[6] = system: Myzus persicae (Green Peach Aphid); assay: Example B8: Myzus persicae (green peach aphid), systemic activity, pea seedling roots in test solution; conditions: 144 h, test rate of 24 ppm, aphid population of mixed ages, 6 days after placing seedlings into test solutions
Experimental: Example B8: Myzus persicae (Green Peach Aphid). Systemic Activity
Roots of pea seedlings infested with an aphid population of mixed ages were placed directly into aqueous test solutions prepared from 10′000 DMSO stock solutions. The samples were assessed for mortality 6 days after placing seedlings into test solutions.

[7] = system: Myzus persicae (Green Peach Aphid); assay: Example B5: Myzus persicae (green peach aphid), feeding/contact activity, sprayed sunflower leaf discs; conditions: foliar, 144 h, application rate of 200 ppm, aphid population of mixed ages, 6 days after infestation
Experimental: Example B5: Myzus persicae (Green Peach Aphid). Feeding/Contact Activity
Sunflower leaf discs were placed onto agar in a 24-well microtiter plate and sprayed with aqueous test solutions prepared from 10′000 ppm DMSO stock solutions. After drying, the leaf discs were infested with an aphid population of mixed ages. The samples were assessed for mortality 6 days after infestation.

[8] = system: Frankliniella occidentalis (Western Flower Thrips); assay: Example B3: Frankliniella occidentalis (western flower thrips), sprayed sunflower leaf discs; conditions: foliar, 168 h, application rate of 200 ppm, population of mixed ages, 7 days after infestation
Experimental: Example B3: Frankliniella occidentalis (Western Flower Thrips
Sunflower leaf discs were placed on agar in 24-well microtiter plates and sprayed with aqueous test solutions prepared from […] stock solutions. After drying the leaf discs were infested with a Frankliniella population of mixed ages. The samples were assessed for mortality 7 days after infestation.

[9] = system: Chilo suppressalis (Striped Rice Stemborer); assay: Example B9: Chilo suppressalis (striped rice stemborer), treated artificial diet, L2 larvae; conditions: 144 h, application rate of 200 ppm, 6 days after infestation, in comparison to untreated samples, read-out: control (mortality, anti-feeding effect, or growth inhibition)
Experimental: Example B9: Chilo suppressalis (Striped Rice Stemborer
24-well microtiter plates with artificial diet were treated with aqueous test solutions prepared from 10′000 ppm DMSO stock solutions by pipetting. After drying, the plates were infested with L2 larvae (6-8 per well). The samples were assessed for mortality, anti-feeding effect, and growth inhibition in comparison to untreated samples 6 days after infestation. Control of Chilo suppressalis by a test sample is given when at least one of the categories mortality, anti-feedant effect, and growth inhibition is higher than the untreated sample.

CCS(=O)(=O)c1cc(C2(C#N)CC2)cnc1-c1nc2cc(S(=N)(=O)C(F)(F)F)ccc2o1 (centres unmarked) [P7, 1-[5-ethylsulfonyl-6-[5-(trifluoromethylsulfonimidoyl)-1,3-benzoxazol-2-yl]-3-pyridyl]cyclopropanecarbonitrile]
≥ 80%: mortality at 200 ppm [1] | percent effect (mortality or growth inhibition) at 200 ppm [2] | percent control (mortality, anti-feeding effect or growth inhibition) at 200 ppm [3] | effect (mortality or growth inhibition) at 200 ppm [4] | percent effect (mortality or growth inhibition) at 200 ppm [5]

CCN=S(=O)(c1cnc2c(c1)nc(-c1ncc(C3(C#N)CC3)cc1S(=O)(=O)CC)n2C)C(F)(F)F (stereo not drawn) [P20, 1-[5-ethylsulfonyl-6-[6-[N-ethyl-S-(trifluoromethyl)sulfonimidoyl]-3-methyl-imidazo[4,5-b]pyridin-2-yl]-3-pyridyl]cyclopropanecarbonitrile]
≥ 80%: mortality at 24 ppm [6] | percent effect (mortality or growth inhibition) at 200 ppm [2] | mortality at 200 ppm [7] | mortality at 200 ppm [8] | percent control (mortality, anti-feeding effect or growth inhibition) at 200 ppm [3] | effect (mortality or growth inhibition) at 200 ppm [4] | percent effect (mortality or growth inhibition) at 200 ppm [5]

CCS(=O)(=O)c1cc(C2(C#N)CC2)cnc1-c1nc2cc(S(=O)(=NCC(F)(F)F)C(F)(F)F)ccc2n1C (stereo not drawn) [P34, 1-[5-ethylsulfonyl-6-[1-methyl-5-[N-(2,2,2-trifluoroethyl)-S-(trifluoromethyl)sulfonimidoyl]benzimidazol-2-yl]-3-pyridyl]cyclopropanecarbonitrile]
≥ 80%: mortality at 200 ppm [1] | percent effect (mortality or growth inhibition) at 200 ppm [2] | percent control (mortality, anti-feeding effect or growth inhibition) at 200 ppm [3] | effect (mortality or growth inhibition) at 200 ppm [4] | percent effect (mortality or growth inhibition) at 200 ppm [5]

CCS(=O)(=O)c1cc(C2(C#N)CC2)cnc1-c1nc2cc(S(=N)(=O)C(F)(F)F)cnc2n1C (centres unmarked) [P21, 1-[5-ethylsulfonyl-6-[3-methyl-6-(trifluoromethylsulfonimidoyl)imidazo[4,5-b]pyridin-2-yl]-3-pyridyl]cyclopropanecarbonitrile]
≥ 80%: mortality at 24 ppm [6] | percent effect (mortality or growth inhibition) at 200 ppm [2] | mortality at 200 ppm [7] | mortality at 200 ppm [8] | percent control (mortality, anti-feeding effect or growth inhibition) at 200 ppm [3] | effect (mortality or growth inhibition) at 200 ppm [4] | percent effect (mortality or growth inhibition) at 200 ppm [5]

CCS(=O)(=O)c1cc(C2(C#N)CC2)cnc1-c1nc2cc(S(=O)(=NC3CC3)C(F)(F)F)cnc2n1C (stereo not drawn) [P58, 1-[6-[6-[N-cyclopropyl-S-(trifluoromethyl)sulfonimidoyl]-3-methyl-imidazo[4,5-b]pyridin-2-yl]-5-ethylsulfonyl-3-pyridyl]cyclopropanecarbonitrile]
≥ 80%: mortality at 200 ppm [1] | percent effect (mortality or growth inhibition) at 200 ppm [2] | percent control (mortality, anti-feeding effect or growth inhibition) at 200 ppm [3] | effect (mortality or growth inhibition) at 200 ppm [4] | percent effect (mortality or growth inhibition) at 200 ppm [5] | percent control (mortality, anti-feedant effect or growth inhibition) at 200 ppm [9]

CCN=S(=O)(c1ccc2c(c1)nc(-c1ncc(C3(C#N)CC3)cc1S(=O)(=O)CC)n2C)C(F)(F)F (stereo not drawn) [P32, 1-[5-ethylsulfonyl-6-[5-[N-ethyl-S-(trifluoromethyl)sulfonimidoyl]-1-methyl-benzimidazol-2-yl]-3-pyridyl]cyclopropanecarbonitrile]
≥ 80%: mortality at 24 ppm [6] | percent effect (mortality or growth inhibition) at 200 ppm [2] | percent control (mortality, anti-feeding effect or growth inhibition) at 200 ppm [3] | effect (mortality or growth inhibition) at 200 ppm [4] | percent effect (mortality or growth inhibition) at 200 ppm [5]

CCS(=O)(=O)c1cc(C2(C#N)CC2)cnc1-c1nc2cc(S(=N)(=O)C(F)(F)F)ccc2n1C (centres unmarked) [P33, 1-[5-ethylsulfonyl-6-[1-methyl-5-(trifluoromethylsulfonimidoyl)benzimidazol-2-yl]-3-pyridyl]cyclopropanecarbonitrile]
≥ 80%: mortality at 200 ppm [1] | percent effect (mortality or growth inhibition) at 200 ppm [2] | percent control (mortality, anti-feeding effect or growth inhibition) at 200 ppm [3] | effect (mortality or growth inhibition) at 200 ppm [4] | percent effect (mortality or growth inhibition) at 200 ppm [5]

CCS(=O)(=O)c1cccnc1-c1nc2cc(S(=O)(=NC(C)=O)C(F)(F)F)ccc2o1 (centres unmarked) [P17, N-[[2-(3-ethylsulfonyl-2-pyridyl)-1,3-benzoxazol-5-yl]-oxo-(trifluoromethyl)-λ^6-sulfanylidene]acetamide]
≥ 80%: mortality at 200 ppm [1] | percent effect (mortality or growth inhibition) at 200 ppm [2] | mortality at 200 ppm [7] | percent control (mortality, anti-feeding effect or growth inhibition) at 200 ppm [3] | effect (mortality or growth inhibition) at 200 ppm [4] | percent effect (mortality or growth inhibition) at 200 ppm [5]

CCS(=O)(=O)c1cc(N=S(C)(C)=O)cnc1-c1nc2cc(S(=N)(=O)C(F)(F)F)ccc2o1 (centres unmarked) [P1, [2-[5-[[dimethyl(oxo)-λ^6-sulfanylidene]amino]-3-ethylsulfonyl-2-pyridyl]-1,3-benzoxazol-5-yl]-imino-oxo-(trifluoromethyl)-λ^6-sulfane]
≥ 80%: mortality at 200 ppm [1] | percent effect (mortality or growth inhibition) at 200 ppm [2] | mortality at 200 ppm [7] | mortality at 200 ppm [8] | percent control (mortality, anti-feeding effect or growth inhibition) at 200 ppm [3] | effect (mortality or growth inhibition) at 200 ppm [4] | percent effect (mortality or growth inhibition) at 200 ppm [5]

CCS(=O)(=O)c1cc(OCC(C)(F)F)cnc1-c1nc2cc(S(=N)(=O)C(F)(F)F)ccc2o1 (centres unmarked) [P26, [2-[5-(2,2-difluoropropoxy)-3-ethylsulfonyl-2-pyridyl]-1,3-benzoxazol-5-yl]-imino-oxo-(trifluoromethyl)-λ^6-sulfane]
≥ 80%: percent effect (mortality or growth inhibition) at 200 ppm [2] | mortality at 200 ppm [7] | mortality at 200 ppm [8] | percent control (mortality, anti-feeding effect or growth inhibition) at 200 ppm [3] | effect (mortality or growth inhibition) at 200 ppm [4] | percent effect (mortality or growth inhibition) at 200 ppm [5]
